Consider 28 compounds from patent US9676760B2, “Fused heterocyclic compounds as ion channel modulators” (Gilead Sciences, Inc., priority 2011, dated 2017).

The target in this assay is wild-type human cardiac sodium channel, hNav1.5 (Homo sapiens, UniProt Q14524). Nature of the assay: Late INa screening assay (QPatch whole cell patch clamp, HEK293). Type of assay: cell-based. The conditions noted are these: compound at 1 μM, 10 μM Tefluthrin; for inhibition at 1 µM: HEK293, percent block of late INa, read-out: Late INa 1 μM. Here is the method: The late sodium current (Late INa) and peak sodium current (Peak INa) assays are performed on an automated electrophysiology platform, QPatch 16× (Sophion Bioscience, Copenhagen, Denmark), which uses the whole cell patch clamp technique to measure currents through the cell membrane of up to 16 cells at a time. The assay uses an HEK293 (human embryonic kidney) cell line heterologously expressing the wild-type human cardiac sodium channel, hNav1.5, purchased from Millipore (Billerica, Mass.). No beta subunits were coexpressed with the Na channel alpha subunit. Cells are maintained with standard tissue culture procedures and stable channel expression is maintained with 400 μg/mL Geneticin in the culture medium. Cells isolated for use on QPatch are incubated for 5 minutes in Detachin 1×(Genlantis, San Diego, USA) at 37° C. to ensure that 80-90% of the cells are single and not part of a cell cluster. Experiments are carried out at 23-25° C.
For both the Late INa and Peak INa assays, series resistance compensation is set to 100% and series resistance and whole-cell compensation are performed automatically. Currents are digitized at 25 kHz and low-pass filtered at 12 kHz and 10 kHz for the late and peak INa assays, respectively. Currents through open sodium channels are automatically recorded and stored in the Sophion Bioscience Oracle database (Sophion Bioscience, Copenhagen, Denmark). Analysis is performed using QPatch Assay and database software and data are compiled in Excel.
Compound stocks are routinely made by the Gilead Sample Bank in plastic vials to 10 mM in dimethyl sulfoxide (DMSO). In some cases, when compounds are not soluble in DMSO, they are made in 100% ethanol. Stocks are sonicated as necessary. The extracellular solution for screening Late INa is composed of: 140 mM NaCl, 4 mM KCl, 1.8 mM CaCl2, 0.75 mM MgCl2 and 5 mM HEPES with pH adjusted to 7.4 using NaOH. The intracellular solution used to perfuse the inside of the cells for both the Late INa and Peak INa assays contains: 120 mM CsF, 20 mM CsCl, 5 mM EGTA, 5 mM HEPES and pH adjusted to 7.4 with CsOH. Compounds are diluted in extracellular solution to 1 μM in glass vials and then transferred to glass well plates before robotic addition to the cells. The 0 mM Na extracellular solution (0Na-ECF) used at the end of each experiment for the Late INa and Peak INa assays to measure baseline current contains: 140 mM N-methyl-D-glucamine; 4 mM KCl; 1.8 mM CaCl2; 0.75 mM MgCl2; 5 mM HEPES and pH was adjusted to 7.4 with HCl.
For the Late INa assay, sodium channels are activated every 10 seconds (0.1 Hz) by depolarizing the cell membrane to −20 mV for 250 milliseconds (ms) from a holding potential of −120 mV. In response to a −20 mV voltage step, typical hNav1.5 sodium currents activate rapidly to a peak negative current and then inactivate nearly completely within 3-4 ms.
Compounds were tested to determine their activity in blocking the late sodium current. Late INa was generated by adding 10 μM Tefluthrin (pyrethroid) to the extracellular solution while recording Na currents. […] ATX-II and tefluthrin occupy distinct, non-overlapping binding sites and modify Na^+ channel function differently to increase late INa. […] After establishing the whole cell recording configuration, late INa activator is added to each well 4 times over a 16-17 minute period so that the late component of the Na current reaches a stable value.
Results are reported as percent block of late INa.
In general terms: Patch clamp records ionic current or voltage across a cell membrane.

The structures appear in SMILES notation.

Sequence of wild-type human cardiac sodium channel, hNav1.5 (Q14524 whole entry): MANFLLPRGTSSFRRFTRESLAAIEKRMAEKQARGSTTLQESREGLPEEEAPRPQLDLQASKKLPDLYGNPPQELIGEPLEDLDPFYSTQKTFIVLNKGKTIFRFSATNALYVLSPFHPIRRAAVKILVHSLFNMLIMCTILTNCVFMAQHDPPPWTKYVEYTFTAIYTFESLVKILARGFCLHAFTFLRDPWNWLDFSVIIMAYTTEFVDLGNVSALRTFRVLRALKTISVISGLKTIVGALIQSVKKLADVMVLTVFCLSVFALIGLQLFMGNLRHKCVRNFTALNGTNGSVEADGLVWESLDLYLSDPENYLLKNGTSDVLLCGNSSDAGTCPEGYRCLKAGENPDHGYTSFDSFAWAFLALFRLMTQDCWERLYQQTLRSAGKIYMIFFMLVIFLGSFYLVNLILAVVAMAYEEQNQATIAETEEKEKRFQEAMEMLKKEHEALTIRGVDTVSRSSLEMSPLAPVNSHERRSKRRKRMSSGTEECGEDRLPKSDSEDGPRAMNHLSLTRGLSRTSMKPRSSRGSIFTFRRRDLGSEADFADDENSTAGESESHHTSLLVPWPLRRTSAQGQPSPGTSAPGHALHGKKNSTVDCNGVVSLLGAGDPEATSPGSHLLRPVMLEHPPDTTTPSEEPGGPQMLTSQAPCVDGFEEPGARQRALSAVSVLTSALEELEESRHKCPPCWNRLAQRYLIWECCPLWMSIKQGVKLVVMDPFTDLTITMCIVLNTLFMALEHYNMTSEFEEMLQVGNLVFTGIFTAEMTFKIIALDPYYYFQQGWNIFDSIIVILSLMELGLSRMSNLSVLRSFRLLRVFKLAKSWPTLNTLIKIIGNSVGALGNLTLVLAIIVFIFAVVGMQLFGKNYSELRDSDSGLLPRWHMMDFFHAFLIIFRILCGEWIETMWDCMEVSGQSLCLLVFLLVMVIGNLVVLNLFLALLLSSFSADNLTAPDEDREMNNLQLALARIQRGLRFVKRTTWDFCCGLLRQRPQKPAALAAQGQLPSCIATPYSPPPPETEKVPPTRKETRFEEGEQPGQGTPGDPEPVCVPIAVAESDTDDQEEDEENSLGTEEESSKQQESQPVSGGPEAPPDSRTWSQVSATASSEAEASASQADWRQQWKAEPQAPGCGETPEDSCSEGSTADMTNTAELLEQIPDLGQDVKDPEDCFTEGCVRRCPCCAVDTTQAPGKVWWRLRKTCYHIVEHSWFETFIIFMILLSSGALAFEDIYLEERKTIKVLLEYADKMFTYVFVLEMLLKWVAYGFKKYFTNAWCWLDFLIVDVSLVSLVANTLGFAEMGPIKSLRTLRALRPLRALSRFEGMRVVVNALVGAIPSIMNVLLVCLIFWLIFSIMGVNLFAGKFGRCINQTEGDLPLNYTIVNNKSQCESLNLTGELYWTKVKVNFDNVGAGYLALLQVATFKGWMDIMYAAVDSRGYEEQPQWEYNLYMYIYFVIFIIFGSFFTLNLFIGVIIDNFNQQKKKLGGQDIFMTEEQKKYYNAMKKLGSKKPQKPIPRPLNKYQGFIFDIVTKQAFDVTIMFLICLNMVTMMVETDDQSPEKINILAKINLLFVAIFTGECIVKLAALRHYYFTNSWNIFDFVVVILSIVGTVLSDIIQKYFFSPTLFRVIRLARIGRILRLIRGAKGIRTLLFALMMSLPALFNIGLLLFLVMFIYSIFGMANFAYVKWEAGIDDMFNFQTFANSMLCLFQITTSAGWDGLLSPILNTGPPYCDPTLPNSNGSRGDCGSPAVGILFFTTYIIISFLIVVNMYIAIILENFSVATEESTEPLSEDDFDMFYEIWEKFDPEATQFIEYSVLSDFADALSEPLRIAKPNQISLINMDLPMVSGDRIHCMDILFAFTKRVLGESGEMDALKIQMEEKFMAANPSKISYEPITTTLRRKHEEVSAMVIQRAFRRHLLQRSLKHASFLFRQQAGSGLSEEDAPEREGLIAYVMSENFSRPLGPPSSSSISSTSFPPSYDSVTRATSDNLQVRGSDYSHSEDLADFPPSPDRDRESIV

Turning to `O=C1c2cc(-c3ccc(OC(F)(F)F)cc3)ccc2OCCN1Cc1ncc(Cl)cn1` [II-65, 4-((5-chloropyrimidin-2-yl)methyl)-7-(4-(trifluoromethoxy)phenyl)-3,4-dihydrobenzo[f][1,4]oxazepin-5(2H)-one], the inhibition at 1 µM worked out at 19%. With `O=C1c2cc(-c3ccc(OC(F)(F)F)cc3)ccc2OCCN1Cc1ccncc1` [II-67, 4-(pyridin-4-ylmethyl)-7-(4-(trifluoromethoxy)phenyl)-3,4-dihydrobenzo[f][1,4]oxazepin-5(2H)-one], the inhibition at 1 µM is 22%. Same read-out and setting: to `O=C1c2cc(-c3ccc(OC(F)(F)F)cc3)ccc2OCCN1Cc1nnc(C2CC2)o1` [II-68, 4-((5-cyclopropyl-1,3,4-oxadiazol-2-yl)methyl)-7-(4-(trifluoromethoxy)phenyl)-3,4-dihydrobenzo[f][1,4]oxazepin-5(2H)-one] belongs 17%; to `O=C1c2cc(-c3ccc(OC(F)(F)F)cc3)ccc2OCCN1CCOc1ncccn1` [II-69, 4-(2-(pyrimidin-2-yloxy)ethyl)-7-(4-(trifluoromethoxy)phenyl)-3,4-dihydrobenzo[f][1,4]oxazepin-5(2H)-one], 33%.

Turning to `O=C1c2cc(-c3ccc(OC(F)(F)F)cc3)ccc2OCCN1Cc1cccnc1` [II-70, 4-(pyridin-3-ylmethyl)-7-(4-(trifluoromethoxy)phenyl)-3,4-dihydrobenzo[f][1,4]oxazepin-5(2H)-one], the inhibition at 1 µM came to 37%. On the same count and under the same terms, the value for `O=C1c2cc(-c3ccc(OC(F)(F)F)cc3)ccc2OCCN1CCO` [II-71, 4-(2-hydroxyethyl)-7-(4-(trifluoromethoxy)phenyl)-3,4-dihydrobenzo[f][1,4]oxazepin-5(2H)-one] was 12%. Turning to `O=C1NCCOc2ccc(-c3ccc(OC(F)(F)F)cc3)cc21` [II-74, 7-(4-(trifluoromethoxy)phenyl)-3,4-dihydrobenzo[f][1,4]oxazepin-5(2H)-one], the inhibition at 1 µM is 12%.

For the compound `CC(C)[C@H]1COc2ccc(-c3ccc(C(F)(F)F)cc3)cc2C(=O)N1` [II-77, (S)-3-isopropyl-7-(4-(trifluoromethyl)phenyl)-3,4-dihydrobenzo[f][1,4]oxazepin-5(2H)-one], the inhibition at 1 µM turned out to be 21%. As to `Cc1ccc(-c2ccc3c(c2)C(=O)N(Cc2ncccn2)CCO3)cc1` [II-87, 4-(pyrimidin-2-ylmethyl)-7-p-tolyl-3,4-dihydrobenzo[f][1,4]oxazepin-5(2H)-one], the inhibition at 1 µM was 22%. In the case of `CC(C)c1ccc(-c2ccc3c(c2)C(=O)N(Cc2ncccn2)CCO3)cc1` [II-89, 7-(4-isopropylphenyl)-4-(pyrimidin-2-ylmethyl)-3,4-dihydrobenzo[f][1,4]oxazepin-5(2H)-one], the inhibition at 1 µM worked out at 28%. On the same count and under the same terms, to `O=C1c2cc(-c3ccc(C4CC4)cc3)ccc2OCCN1Cc1ncccn1` [II-92, 7-(4-cyclopropylphenyl)-4-(pyrimidin-2-ylmethyl)-3,4-dihydrobenzo[f][1,4]oxazepin-5 (2H)-one] belongs 34%.

Turning to `C[C@H](c1ncccn1)N1CCOc2ccc(-c3ccc(C(F)(F)F)cc3)cc2C1=O` [II-95, (R)-4-(1-(pyrimidin-2-yl)ethyl)-7-(4-(trifluoromethyl)phenyl)-3,4-dihydrobenzo[f][1,4]oxazepin-5(2H)-one], the inhibition at 1 µM is 19%.

For `CC(C)COc1ccc(-c2ccc3c(c2)C(=O)N(Cc2ncccn2)CCO3)cc1` [II-97, 7-(4-isobutoxyphenyl)-4-(pyrimidin-2-ylmethyl)-3,4-dihydrobenzo[f][1,4]oxazepin-5 (2H)-one], the inhibition at 1 µM is 36%.

For the compound `O=C1c2cc(-c3ccc(OC4CC4)cc3)ccc2OCCN1Cc1ncccn1` [II-102, 7-(4-cyclopropoxyphenyl)-4-(pyrimidin-2-ylmethyl)-3,4-dihydrobenzo[f][1,4]oxazepin-5(2H)-one], the inhibition at 1 µM worked out at 21%. The same measure, in the same setting: to `O=C1c2cc(-c3ccc(F)cc3)ccc2OCCN1Cc1ncccn1` [II-104, 7-(4-fluorophenyl)-4-(pyrimidin-2-ylmethyl)-3,4-dihydrobenzo[f][1,4]oxazepin-5(2H)-one] belongs 21%; to `O=C1c2cc(-c3ccc(OCC(F)(F)F)c(F)c3)ccc2OCCN1Cc1ncccn1` [II-106, 7-(3-fluoro-4-(2,2,2-trifluoroethoxy)phenyl)-4-(pyrimidin-2-ylmethyl)-3,4-dihydrobenzo[f][1,4]oxazepin-5(2H)-one], 18%. Turning to `O=C1c2cc(-c3ccc(OCC(F)(F)F)cc3)ccc2OCCN1Cc1ncccn1` [II-107, 4-(pyrimidin-2-ylmethyl)-7-(4-(2,2,2-trifluoroethoxy)phenyl)-3,4-dihydrobenzo[f][1,4]oxazepin-5(2H)-one], the inhibition at 1 µM worked out at 18%. For `O=C1c2cc(-c3ccc(OC(F)(F)F)cc3)ccc2OCCN1Cc1nccc(C(F)(F)F)n1` [II-113, 7-(4-(trifluoromethoxy)phenyl)-4-((4-(trifluoromethyl)pyrimidin-2-yl)methyl)-3,4-dihydrobenzo[f][1,4]oxazepin-5(2H)-one], the inhibition at 1 µM worked out at 27%. Regarding `O=C1c2cc(-c3ccc(OC(F)(F)F)cc3)ccc2OCCN1Cc1ncc(-c2ccc(C(F)(F)F)nc2)cn1` [II-115, 7-(4-(trifluoromethoxy)phenyl)-4-((5-(6-(trifluoromethyl)pyridin-3-yl)pyrimidin-2-yl)methyl)-3,4-dihydrobenzo[f][1,4]oxazepin-5(2H)-one], the inhibition at 1 µM came to 21%.

Take `N#CC1(c2ccc(-c3ccc4c(c3)C(=O)N(Cc3ncccn3)CCO4)cc2)CCCC1` [II-122, 1-(4-(5-oxo-4-(pyrimidin-2-ylmethyl)-2,3,4,5-tetrahydrobenzo[f][1,4]oxazepin-7-yl)phenyl)cyclopentanecarbonitrile]: the inhibition at 1 µM is 19%.

As for `CCOc1ccc(-c2ccc3c(c2)C(=O)N(Cc2ncccn2)CCO3)cc1` [II-123, 7-(4-ethoxyphenyl)-4-(pyrimidin-2-ylmethyl)-3,4-dihydrobenzo[f][1,4]oxazepin-5(2H)-one], the inhibition at 1 µM came out at 21%. Regarding `O=C1c2cc(-c3ccc(C(F)F)cc3)ccc2OCCN1Cc1ncccn1` [II-124, 7-(4-(difluoromethyl)phenyl)-4-(pyrimidin-2-ylmethyl)-3,4-dihydrobenzo[f][1,4]oxazepin-5(2H)-one], the inhibition at 1 µM turned out to be 17%.

For `O=C1c2cc(-c3ccc(OC(F)(F)F)cc3)ccc2OCCN1Cc1nccc(N2CCOCC2)n1` [II-133], the inhibition at 1 µM stood at 23%. For the compound `O=C1c2cc(-c3ccc(C(F)(F)F)cc3)ccc2OCCN1Cc1cn2ccccc2n1` [II-135, 4-(imidazo[1,2-a]pyridin-2-ylmethyl)-7-(4-(trifluoromethyl)phenyl)-3,4-dihydrobenzo[f][1,4]oxazepin-5(2H)-one], the “Late INa 1 μM” value (percent block of late INa) was 32%.

Take `O=C1c2cc(-c3ccc(C(F)(F)F)c(F)c3)ccc2OCCN1Cc1ncccn1` [II-136, 7-(3-fluoro-4-(trifluoromethyl)phenyl)-4-(pyrimidin-2-ylmethyl)-3,4-dihydrobenzo[f][1,4]oxazepin-5(2H)-one]: the inhibition at 1 µM was 30%. Same read-out and setting: the value for `O=C1c2cc(-c3ccc(OC(F)(F)F)cc3)ccc2OCCN1Cc1nccc(N2CCCCC2)n1` [II-139, 4-((4-(piperidin-1-yl)pyrimidin-2-yl)methyl)-7-(4-(trifluoromethoxy)phenyl)-3,4-dihydrobenzo[f][1,4]oxazepin-5(2H)-one] was 31%. Same read-out and setting: to `CN(C)c1ccnc(CN2CCOc3ccc(-c4ccc(OC(F)(F)F)cc4)cc3C2=O)n1` [II-140, 4-((4-(dimethylamino)pyrimidin-2-yl)methyl)-7-(4-(trifluoromethoxy)phenyl)-3,4-dihydrobenzo[f][1,4]oxazepin-5(2H)-one] belongs 32%; to `O=C1NC(Cc2ccccn2)COc2ccc(-c3ccc(OC(F)(F)F)cc3)cc21` (stereo not shown) [II-142, 3-(pyridin-2-ylmethyl)-7-(4-(trifluoromethoxy)phenyl)-3,4-dihydrobenzo[f][1,4]oxazepin-5(2H)-one], 19%.
